According to US20250228858A1, “ANTI-CANCER COMBINATION THERAPY” (Boehringer Ingelheim International GmbH, priority 2023, published 2025):

Columns and labels:
[1] = system: HER2-overexpressing human gastric cancer cell line NCI-N87; assay: NCI-N87 subcutaneous xenograft, zongertinib with T-DM1; format: in vivo, NMRI-Foxn1^nu mice; settings: for Regressions >30% / TGI: day 21; for Regressions >30%: tumors regressed/total; for Time to reach 300 mm^3: median, after stop of treatment at day 21
Experimental: The study is performed in human gastric cancer cell line NCI-N87 grown as subcutaneous xenografts in NMRI-Foxn1^nu mice. Day 1 was the first day, day 21 the last day of treatment and day 22 the final day of analysis. […]
NCI-N87 is a HER2-overexpressing human gastric cancer cell line that can be obtained from the American Type Culture Collection (ATCC #CRL-5822). Cells are cultured in T175 tissue culture flasks at 37° C. and 5% CO2. The medium used is RPMI 1640 (ATCC #30-2001) supplemented with 10% fetal calf serum (FCS) (Thermo Scientific #SH 30084.03). Cultures are split twice weekly with a ratio of 1:2.
Mice are 6- to 10-week-old female NMRI-Foxn1^nu purchased from Taconic, Denmark. After arrival at the animal facility, mice are allowed to adjust to conditions at least for 5 days before they are used for the experiment. They are housed in Macrolon® type III cages in groups of 8 to 10 under pathogen-free, controlled and standardized conditions at 21.5±1.5° C. temperature, 55±10% humidity and 12-h light-dark cycle. Standardized diet (PROVIMI KLIBA) and autoclaved tap water are provided ad libitum. Subcutaneous microchips implanted under isoflurane anaesthesia are used to identify each mouse. Cage cards showing the study number, the animal identification number, the compound, the dose level, the administration route as well as the schedule remain with the animals throughout the study.
To establish subcutaneous tumors, NCI-N87 cells are harvested by centrifugation, washed and resuspended in PBS+5% FCS at 2.5×10^7 cells/ml. 100 μl cell suspension containing 2.5×10^6 cells is injected subcutaneously into the right flank of the mice (1 site per mouse).
The suspension is used for a maximum of 7 days.
T-DM1 (Kadcyla) can be purchased from Roche.
Mice in the control group are treated with vehicle, i.e.: • (i) 0.5% Natrosol, administered once daily for the duration of the treatment intragastrally by gavage needle with a volume of 10 ml/kg body weight; and • (ii) saline (0.9%), administered once every three weeks intravenously into the tail vein with a volume of 5 ml/kg.
Tumor volumes are measured three times a week with a caliper. The volume of each tumor [in mm^3] is calculated according to the formula: […]
To monitor side effects of treatment, mice are inspected daily for abnormalities and body weight is determined three times a week. […] In addition, animals with tumor sizes exceeding 1500 mm^3 in diameter, with ulcerating tumors or 18% body weight loss are euthanized for ethical reasons.
For a quick overview of possible treatment effects, the median of the tumor volume of each treatment group T is referred to the median of the control C as tumor growth inhibition (TGI) defined as: […]
To do so, the time until the tumor reached a critical volume of 300 mm^3 can be included as an additional evaluation parameter. If an animal is sacrificed for tumor necrosis without reaching the critical tumor volume, the time point is set to the last measurement time point and included as a censored observation.
The median survival time is derived from the Kaplan Meier survival curves per group as the time point with a survival probability (probability of reaching the critical tumor volume) of 0.5. For the treatment groups the median survival time is referred to the corresponding time of the control group as an estimate for the prolongation of the time to critical tumor volume by the therapy.

[2] = system: parental NCI-N87 cells; assay: Proliferation assay (CellTiter Glo), parental NCI-N87 cells; format: cell-based, human; settings: 5 days of incubation, in vitro
Experimental: Per well, 1000 cells are seeded in 40 μL medium in white, sterile 384-well culture plates (TC-treated; PerkinElmer #6007680) and incubated overnight in a humidified incubator at 37° C. and 5% CO2. 0.1% DMSO-control or serial compound dilution in triplicates are added. […] After 5 days of incubation with test compounds, the cells plates are measured upon addition of CellTiter Glo Luminescent Cell Viability Reagent (Promega, #G9243) to assess cell viability. The plates are placed on a shaker for five minutes and additionally incubated for 10 minutes at room temperature to induce cell lysis and to stabilize the luminescent signal. The luminescent signal of each well is measured in an EnSpire Multilabel Plate Reader 658 (PerkinElmer). The dose response curves are fit and visualized using Boehringer Ingelheim's proprietary software MegaLab and PRISM (GraphPad Inc.).

[3] = system: HER2-overexpressing human breast cancer cell line SUM190PT; assay: SUM190PT subcutaneous xenograft, zongertinib with T-DM1; format: in vivo, NMRI-Foxn1^nu mice; settings: day 21, alone or combined; for stable disease: number of tumors out of 8, zongertinib 20 mg/kg qdx21, T-DM1 3 mg/kg q21dx1; for Regressions >30%: tumors regressed/total (partial response); for Regressions >30% / TGI: zongertinib 20 mg/kg qdx21 p.o., T-DM1 3 mg/kg q21dx1 i.v.
Experimental: The study is performed in human breast cancer cell line SUM190PT grown as subcutaneous xenografts in NMRI-Foxn1^nu mice. Day 1 was the first day, day 21 the last day of treatment and final day of analysis.
SUM190PT is a HER2-overexpressing human breast cancer cell line that can be obtained from Asterand Bioscience (BioIVT). Cells are cultured in T75, T175 and 5-Layer tissue culture flasks at 37° C. and 5% CO2. The medium used is ACL-4 (Thermo Fisher Scientific #041-95574M Custom Batch) supplemented with 0.5% bovine serum albumin (JHR 85-041-025), 0.02 mg/ml insulin (Sigma I5500), 0.01 mg/ml transferrin (Sigma T-2252), 25 nM sodium selenite (Sigma S9133), 50 nM Hydrocortisone (Sigma H-4001), 1 ng/ml Epidermal Growth Factor (unfiltered, Sigma E4127), 0.01 mM ethanolamine (Sigma E-0135), 0.01 mM phosphorylethanolamine (Medchem HY-N5034), 100 pM triiodothyronine (Sigma T5516), 0.5 mM sodium pyruvate (Sigma S8636) and 2 mM L-glutamine (Gibco 11539876). Cultures are split once weekly with a ratio of 1:2.
To establish subcutaneous tumors, SUM190PT cells are harvested by centrifugation, washed and resuspended in PBS+2.5% FCS+50% Matrigel (Corning #2165001) at 5×10^7 cells/ml. 100 μl cell suspension containing 5×10^6 cells is injected subcutaneously into the right flank of the mice (1 site per mouse). Mice are randomly distributed between the treatment and the vehicle control group (13 days after cell injection) when tumors are well established and have reached volumes of 100 to 180 mm^3.
Tumor volumes and side effects are monitored as described in Example 1 (see paragraph 1.1.6), except that control animals were analysed when the median tumor volume of the group reaches a size of approximately 700 mm^3.
The statistical evaluation of the tumor volume and the body weight is conducted on day 21 (last day of the study). Apart from this, statistical analysis was performed as described in Example 1 (see paragraph 1.1.7), with no evaluation of tumor growth after stop of treatment.

[4] = zongertinib 5 mg/kg qdx21 p.o., alone or combined with T-DM1 10 mg/kg q21dx1 i.v.
[5] = zongertinib 20 mg/kg qdx21 p.o., T-DM1 10 mg/kg q21dx1 i.v., alone or combined
[6] = zongertinib 20 mg/kg/day, T-DM1 10 mg/kg, alone or combined

Row | Molecule | Regressions >30% [1, 4] | Regressions >30% [1, 5] | TGI [1, 4] | TGI [1, 5] | Time to reach 300 mm^3 [1, 4] | effect on tumor growth (median tumor volumes over time) ([1]; zongertinib 5 mg/kg/day, alone or combined with T-DM1 10 mg/kg) | effect on tumor growth (median tumor volumes over time) [1, 6] | sensitivity (dose response, cell viability) [2] | stable disease [3] | Regressions >30% [3] | TGI [3] | Time to reach 300 mm^3 [1, 5]
1 | C=CC(=O)NC1CCN(c2ncc3ncnc(Nc4ccc(Oc5ccc6c(c5)ncn6C)c(C)c4)c3n2)CC1 [Zongertinib, N-{1-[8-({3-methyl-4-[(1-methyl-1H-1,3-benzodiazol-5-yl)oxy]phenyl}amino)-[1,3]diazino [5,4-d]pyrimidin-2-yl]piperidin-4-yl}prop-2-enamide] | 0/8 | 8/8 | 45% | 145% | 30.0 days | did not shrink tumors | induced deep and persistent tumor shrinkage | sensitive | no stable disease | 0/8 | 64% | –
2 | trastuzumab emtansine [T-DM1, reference compound] | – | 1/8 | – | 67% | – | – | suppressed the growth of NCI-N87 tumors but did not shrink them | – | 3 | 0/8 | 90% | 39.5 days
